Reference: PMC12068008 (International Journal of Molecular Sciences, 2024)
Several values for one entry are separate records, joined by “and”; a condition that tells them apart may be missing. Identical values can stand only once.

Legend:
MDA-MB-231 cells = assay: SRB assay, MDA-MB-231 cells; format: cell-based; details: for IC50: Homo sapiens, MDA-MB-231, 72 h after treatment, SRB, read-out: IC50 MDA-231
Procedure: (§1) All cell lines were cultured in Dulbecco’s Modified Eagle’s Medium (DMEM) with 4500 mg/L glucose and L-glutamine (Capricorn Scientific, Ebsdorfergrund, Germany), supplemented with 10% foetal bovine serum (PAN-Biotech, Aidenbach, Germany), 10,000 U/mL penicillin, and 10 mg/mL streptomycin solution (Capricorn Scientific) under standard conditions at 37 °C in a humidified 5% CO2 atmosphere (ESCO, Lifesciences Group, Singapore).
(§2) Cells were seeded on a 96-well plate (Thermo Fisher Scientific, Waltham, MA, USA) at 2 × 10^3 cells per well in DMEM medium. For the analysis of the concentration- and time-dependent effect of the analysed compounds, cell monolayers were treated 24 h after seeding with concentrations 1 × 10^−6, 1 × 10^−5, and 1 × 10^−4 M for 24, 48, or 72 h. Cell viability was detected using sulforhodamine B (SRB) assay, based on the staining of cellular proteins. The assay was performed according to the procedure described by Skehan et al.. The cells were fixed with 10% trichloroacetic acid (TCA, CARLO ERBA Reagents GmbH, Emmendingen, Germany) for 1 h at 4 °C, washed with water, and stained for 15 min with 0.4% SRB (Sigma-Aldrich Chemie GmbH, Steinheim, Germany) in 1% acetic acid. The unbound SRB dye was rinsed with 1% acetic acid, while the protein-bound dye was extracted with a 10 mM Tris base (Sigma-Aldrich). […] The results were expressed as a percentage of the control, where the cell growth of the control is set to 100%. […] The selectivity index (SI) was determined according to the following formula:(2) SI=IC50 for fibroblast cell line/IC50 for tumour cell line
(§3) The assay was performed two times in 4 replicates for every experimental group. The statistical significance of differences between treated and untreated cells was estimated by the independent Student’s t-test, with the level of significance set at p < 0.05.

[1] = DPPH radical scavenging assay; details: 30 min incubation, 25 °C
Procedure: DPPH (2,2-diphenyl-1-picrylhydrazyl) radical scavenging assay was used to assess free-radical scavenging activity of synthesized compounds. Initially, 1 × 10^−4 M working solution of DPPH was prepared, and 350 µL was added to 350 µL of the solution of each compound. The final concentrations of the compounds (Q, 2a, and 2b) in the samples were 1 × 10^−3 M, 1 × 10^−4 M, and 1 × 10^−5 M. The control included ethanol only and DPPH–ethanol solution without compounds. The mixtures were incubated at 25 °C in the dark for 30 min. After incubation, the absorbance of the samples at 517 nm was measured in duplicate by using a UV/Vis spectrophotometer (Lambda 35, Perkin Elmer, Waltham, MA, USA). The DPPH radical scavenging ability was calculated using the following equation:(1) Antioxidative activity(%)=Acontrol−Asample/Acontrol×100% where Asample and Acontrol represent the absorbance at 517 nm of the sample and control, respectively. All samples were analysed in duplicate.

HeLa cells = assay: SRB assay, HeLa cells; format: cell-based; details: for Viability of HeLa cells: % of control, concentrations 1 × 10^−6 to 1 × 10^−4 M (not assigned to the values for 2a); for IC50: Homo sapiens, HeLa, 72 h after treatment, SRB, read-out: IC50 HeLa
Procedure: as §1, §2, §3

eqBuChE = eqBuChE (Equus caballus, UniProt P81908); assay: BuChE inhibition (Ellman's procedure); format: biochemical; details: 37 °C; for IC50: read-out: IC50 BChE; for inhibition at 100 µM: at 1 × 10^−4 M, read-out: Percentage Inhibition BuChE
eqBuChE, sequence (P81908 whole entry): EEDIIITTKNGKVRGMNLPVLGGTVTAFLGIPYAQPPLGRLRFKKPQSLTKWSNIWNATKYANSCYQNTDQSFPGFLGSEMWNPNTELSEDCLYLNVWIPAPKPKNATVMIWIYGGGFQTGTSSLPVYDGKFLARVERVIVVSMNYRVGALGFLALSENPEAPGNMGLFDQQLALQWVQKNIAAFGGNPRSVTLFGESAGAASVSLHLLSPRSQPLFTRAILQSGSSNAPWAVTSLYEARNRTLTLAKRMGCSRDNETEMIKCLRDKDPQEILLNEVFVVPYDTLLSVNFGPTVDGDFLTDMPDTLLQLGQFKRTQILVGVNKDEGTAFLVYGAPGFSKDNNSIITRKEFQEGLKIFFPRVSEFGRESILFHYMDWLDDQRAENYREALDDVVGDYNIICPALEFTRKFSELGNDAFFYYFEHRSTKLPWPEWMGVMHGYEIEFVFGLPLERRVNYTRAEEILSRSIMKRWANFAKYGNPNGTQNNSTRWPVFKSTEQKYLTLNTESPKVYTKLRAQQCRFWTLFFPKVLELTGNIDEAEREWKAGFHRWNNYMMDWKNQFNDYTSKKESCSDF
Procedure: The abilities of compounds to inhibit AChE and BuChE activity were determined following Ellman’s procedure, with AChI and BuChI as the enzyme substrate, respectively, and DTNB as a chromogenic reagent. AChE’s and BuChE’s working solutions were prepared at 20 mM TRIS and deionized water, respectively. AChI and BuChI solutions were prepared in deionized water. A 0.01 M DTNB solution was prepared with 0.1 M phosphate buffer (pH 7) containing 0.15% (w/v) sodium bicarbonate. Stock solutions (10 mM) of investigated compounds were prepared daily by dissolving solid compounds in DMSO. The reaction mixture containing phosphate buffer, DTNB, enzyme, and compound was preincubated 30 min at 37 °C. After the preincubation time, the enzyme reaction was initiated by adding appropriate substrate and left to incubate for 6 min. After incubation, 0.1 M SDS was added to stop the reaction. Absorbance measurements were performed using a UV/Vis spectrophotometer (Lambda 35, Perkin Elmer), measuring absorbance at 412 nm. A blank assay, containing all components except the enzyme, was used to account for non-enzyme reactions. The control solution contained all components except the inhibitor. All experiments were conducted in triplicate, and the results are expressed as the mean percentage enzyme activity compared to the control value. IC50 values were determined graphically using Origin 9 Microsoft Windows.

Na^+, K^+-ATPase = assay: Na+,K+-ATPase assay (orthophosphate release); format: biochemical, porcine
Procedure: Na^+, K^+-ATPase activity was assessed using a modified version of the method by Seals et al., based on measuring the change in orthophosphate concentration released during ATP hydrolysis. The incubation mixture was prepared at 50 mM TRIS-HCl (pH 7.4), containing 5 mM MgCl2, 100 mM NaCl, 20 mM KCl, 25 μL of 5mg/mL commercial enzyme solution, and 20 μL of an inhibitor solution at a certain concentration. After preincubating the mixture for 10 min at 37 °C, the reaction was initiated by adding 20 μL of 20 mM ATP. The reaction proceeded for 10 min at 37 °C before being terminated by adding 22 μL of 3 M cold perchloric acid, with the tube then placed on ice. In the blank sample, the incubation mixture contained only TRIS buffer (pH 7.4) without MgCl2, NaCl, or KCl. The reaction volume was adjusted to a final volume of 200 μL, after which 4.5 mL of water was added. Released orthophosphate was quantified using a colorimetric reaction with 200 μL of 0.2 M ammonium molybdate in 30% sulfuric acid and one drop of 2.5% SnCl2 in glycerol. Total ATPase activity was determined by measuring the absorbance of solution at 690 nm. Enzyme activity was expressed as relative enzyme activity (REA), defined as the percentage of Na^+, K^+-ATPase activity remaining in comparison to samples without inhibitor (control activity).

SMILES	Viability of MDA-231 cells (MDA-MB-231 cells; 72 h)	IC50 (MDA-MB-231 cells) [µM]	IC50 [1] [µM]	Viability of HeLa cells (HeLa cells; 48 h)	Viability of HeLa cells (HeLa cells; 72 h)	IC50 (HeLa cells) [µM]	IC50 (eqBuChE) [µM]	inhibition at 100 µM (eqBuChE) [%]	IC50 (Na^+, K^+-ATPase; 37 °C) [µM]	Percentage Inhibition Na^+, K^+-ATPase (Na^+, K^+-ATPase; at 1 × 10^−4 M, 37 °C) [%]	fold decrease in IC50 toward Na^+, K^+-ATPase compared to bare quercetin (Na^+, K^+-ATPase; versus quercetin) [fold]
O=c1c(O)c(-c2ccc(O)c(O)c2)oc2c(CN3CCc4ccccc4C3)c(O)cc(O)c12 [Compound 2a]	recovered to the control level or even increased	146 ± 7	1.59	43% and 37%	35% and 29%	53.5 ± 2.67	16.9	70			
COc1cc2c(cc1OC)CN(Cc1c(O)cc(O)c3c(=O)c(O)c(-c4ccc(O)c(O)c4)oc13)CC2 [Compound 2b]		106 ± 5	10.2			19.5 ± 0.97	41.1	67.6	0.97	100	50
